Molecules are shown by their SMILES.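 Protocol summary: plate cells (96-well), add compound at 5 concentrations, incubate 48 h, interpolate endpoints linearly. GI50 = concentration required for 50% inhibition of growth.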 Activity calls are given as the source filed them. No stated cut-off is given here; in the data, active = GI50 up to about 1.1 µM and inactive = higher.

Some test systems named below: SR; MOLT-4; RPMI-8226; OVCAR-8; K562; NCI-H226; HT-29; MDA-N; NCI/ADR-RES; TK-10; IGROV-1; HCT-15; U-251; OVCAR-3; Malme-3M; CCRF-CEM; LOX IMVI; HCC 2998; SN12C; SNB-19.
Test in all cases: DTP human tumour cell line panel, 48 h

By GI50 is commonly meant the concentration at which growth is held to half of that of the control. For `N=C(N)NC(=N)Nc1ccc(S(N)(=O)=O)cc1`, the GI50 in the experiment on SR, in the experiment with MOLT-4, in the experiment on RPMI-8226, in the experiment on OVCAR-8, with K562 and in the experiment with NCI-H226 was > 100 µM (inactive) each time. Also, the GI50 was > 100 µM (inactive) in the experiment with HT-29; > 100 µM (inactive) with MDA-N; > 100 µM (inactive) with NCI/ADR-RES; > 100 µM (inactive) in the experiment on TK-10; > 100 µM (inactive) with IGROV-1; over 100 µM in the experiment on HCT-15. Further, the GI50 in the experiment on U-251 is > 100 µM (inactive); in the experiment with OVCAR-3, > 100 µM (inactive); in the experiment with Malme-3M it was > 100 µM (inactive); in the experiment with CCRF-CEM, > 100 µM (inactive); in the experiment with LOX IMVI it was > 100 µM (inactive); with HCC 2998, 6.27 µM (inactive). Further, the GI50 in the experiment on SN12C and in the experiment on SNB-19 was > 100 µM (inactive) throughout.

As for `CC(=O)OC1CC(n2cc(F)c(=O)[nH]c2=O)OC1CO` (stereo not given), the GI50 was 0.604 µM (active) with SR; 1.08 µM (active) in the experiment with MOLT-4; 21.9 µM (inactive) with RPMI-8226; 0.668 µM (active) with OVCAR-8; 15.1 µM (inactive) in the experiment with K562; 49.1 µM (inactive) in the experiment on NCI-H226. The GI50 in the experiment on HT-29 is 19.9 µM (inactive); with MDA-N it was 24.3 µM (inactive); with NCI/ADR-RES it was 1.93 µM (inactive); in the experiment on TK-10, 15.9 µM (inactive); with IGROV-1, > 61.7 µM (inactive); in the experiment on HCT-15, 16.1 µM. Also, the GI50 is 5.69 µM (inactive) in the experiment with U-251; 13.5 µM (inactive) with OVCAR-3; 18 µM (inactive) in the experiment with Malme-3M; 0.117 µM (active) with CCRF-CEM; 0.324 µM (active) with LOX IMVI; < 0.0279 µM (active) in the experiment with HCC 2998. Further, the GI50 with SN12C was 1.23 µM (inactive); in the experiment with SNB-19, 2.72 µM (inactive).

Turning to `COc1ccc2nc3cc([N+](=O)[O-])ccc3c(NNc3ccccc3)c2c1`, the GI50 was 14.8 µM (inactive) with SR; 21 µM (inactive) with MOLT-4; 17.5 µM (inactive) in the experiment on RPMI-8226; 39.3 µM (inactive) in the experiment with OVCAR-8; 5.69 µM (inactive) with K562; 0.596 µM (active) in the experiment on NCI-H226. Besides, the GI50 with HT-29 is 13.8 µM (inactive); in the experiment on MDA-N, 29.5 µM (inactive); in the experiment on NCI/ADR-RES, 31 µM (inactive); with TK-10 it was 2.58 µM (inactive); in the experiment with IGROV-1 it was 2.93 µM (inactive); in the experiment with HCT-15, 22.6 µM. Besides, the GI50 in the experiment with U-251 is 18.7 µM (inactive); with OVCAR-3, 30 µM (inactive); in the experiment with Malme-3M it was 20.3 µM (inactive); with CCRF-CEM, 23.2 µM (inactive); in the experiment on LOX IMVI, 29 µM (inactive); in the experiment with HCC 2998, 23.2 µM (inactive). Moreover, the GI50 with SN12C is 30.2 µM (inactive); in the experiment on SNB-19 it was 56.4 µM (inactive).

Consider `COP(=O)(OC)/C(=C/c1c[nH]c2ccccc12)C(=O)O`, for which the GI50 with SR, with MOLT-4, in the experiment on RPMI-8226, in the experiment on OVCAR-8, in the experiment on K562 and in the experiment with NCI-H226 was > 100 µM (inactive) each time. In addition, the GI50 with HT-29 is > 100 µM (inactive); in the experiment with MDA-N, > 100 µM (inactive); in the experiment with NCI/ADR-RES it was > 100 µM (inactive); in the experiment with TK-10, > 100 µM (inactive); in the experiment with IGROV-1, > 100 µM (inactive); with HCT-15, over 100 µM. The GI50 with U-251, with OVCAR-3, in the experiment with Malme-3M, with CCRF-CEM, in the experiment on LOX IMVI and with HCC 2998 was > 100 µM (inactive) each time. The GI50 with SN12C and in the experiment on SNB-19 was > 100 µM (inactive) throughout.

For the compound `Cl.O=C(O)c1cccnc1`, the GI50 with SR, in the experiment with MOLT-4, in the experiment with RPMI-8226, in the experiment on OVCAR-8, in the experiment on K562 and in the experiment on NCI-H226 was > 100 µM (inactive) throughout. Besides, the GI50 in the experiment with HT-29 was > 100 µM (inactive); in the experiment with MDA-N, > 100 µM (inactive); with NCI/ADR-RES, > 100 µM (inactive); in the experiment with TK-10, > 100 µM (inactive); with IGROV-1, > 100 µM (inactive); in the experiment on HCT-15, over 100 µM. Also, the GI50 with U-251, with OVCAR-3, with Malme-3M, in the experiment on CCRF-CEM, in the experiment with LOX IMVI and with HCC 2998 was > 100 µM (inactive) in each case. Besides, the GI50 with SN12C and in the experiment with SNB-19 was > 100 µM (inactive) throughout.

For `CCOC(=O)c1ccc(-c2cccs2)[nH]1`, the GI50 in the experiment with SR is 54.7 µM (inactive); in the experiment on MOLT-4, 51.4 µM (inactive); in the experiment on RPMI-8226, > 70.8 µM (inactive); in the experiment with OVCAR-8, > 55.5 µM (inactive); in the experiment with K562, 71.3 µM (inactive); with NCI-H226, > 100 µM (inactive). Besides, the GI50 with HT-29 is 54 µM (inactive); with MDA-N, 66.8 µM (inactive); with NCI/ADR-RES, 42.2 µM (inactive); in the experiment on TK-10 it was > 65.3 µM (inactive); with IGROV-1, 83.2 µM (inactive); with HCT-15 it was 26.9 µM. The GI50 is > 76.4 µM (inactive) in the experiment with U-251; 59.8 µM (inactive) with OVCAR-3; 63.4 µM (inactive) in the experiment on Malme-3M; > 81.3 µM (inactive) in the experiment with CCRF-CEM; > 100 µM (inactive) in the experiment on LOX IMVI; > 100 µM (inactive) in the experiment with HCC 2998. Further, the results for the GI50 in the experiment on SN12C and in the experiment on SNB-19 were > 100 µM (inactive) and 98.2 µM (inactive), respectively.

Regarding `Cc1c2cccc-2c(OCCO)cc2c1[nH]c1ccccc12`, the GI50 was 5.27 µM (inactive) in the experiment on SR; 2.99 µM (inactive) with MOLT-4; 3 µM (inactive) with RPMI-8226; 3.6 µM (inactive) in the experiment on OVCAR-8; 3.1 µM (inactive) with K562; 2.96 µM (inactive) in the experiment with NCI-H226. For the same compound, the GI50 in the experiment on HT-29 was 3.52 µM (inactive); with MDA-N it was 2.76 µM (inactive); with NCI/ADR-RES, 3.03 µM (inactive); with TK-10, 4.06 µM (inactive); with IGROV-1 it was 1.88 µM (inactive); in the experiment on HCT-15, 3.16 µM. The GI50 is 1.89 µM (inactive) with U-251; 1.81 µM (inactive) in the experiment on OVCAR-3; 1.73 µM (inactive) with Malme-3M; 4.75 µM (inactive) in the experiment on CCRF-CEM; 1.95 µM (inactive) in the experiment on LOX IMVI; 3.15 µM (inactive) with HCC 2998. Also, the GI50 in the experiment with SN12C was 2.09 µM (inactive); in the experiment on SNB-19, 8.57 µM (inactive).

`CC1(C)OC2C(O)C(CO)OC2(C(F)F)O1` (stereo not given): the GI50 with SR, in the experiment on MOLT-4, in the experiment on RPMI-8226, in the experiment with OVCAR-8, with K562 and with NCI-H226 was > 100 µM (inactive) each time. In addition, the GI50 is > 100 µM (inactive) in the experiment on HT-29; > 100 µM (inactive) in the experiment on MDA-N; > 100 µM (inactive) in the experiment with NCI/ADR-RES; > 100 µM (inactive) with TK-10; > 100 µM (inactive) in the experiment with IGROV-1; over 100 µM in the experiment on HCT-15. Also, the GI50 in the experiment on U-251, in the experiment with OVCAR-3, in the experiment on Malme-3M, in the experiment on CCRF-CEM, in the experiment with LOX IMVI and in the experiment with HCC 2998 was > 100 µM (inactive) throughout. For the same compound, the GI50 in the experiment with SN12C was > 100 µM (inactive); in the experiment on SNB-19, > 47.1 µM (inactive).

`CCOC(=O)C1(Cc2ccccc2)Cc2cc3c(cc2C1)CCC3`: the GI50 with SR is 23.9 µM (inactive); in the experiment on MOLT-4, 17.5 µM (inactive); in the experiment with RPMI-8226 it was 20.6 µM (inactive); in the experiment on OVCAR-8, 47.3 µM (inactive); with K562 it was 22.5 µM (inactive); in the experiment with NCI-H226 it was 25.2 µM (inactive). The GI50 with HT-29 is 18.4 µM (inactive); in the experiment on MDA-N, 31.1 µM (inactive); in the experiment on NCI/ADR-RES it was 48.1 µM (inactive); with TK-10, 92.7 µM (inactive); with IGROV-1 it was 39 µM (inactive); in the experiment with HCT-15 it was 27.7 µM. Moreover, the GI50 is 30.8 µM (inactive) with U-251; 41.1 µM (inactive) with OVCAR-3; 29.6 µM (inactive) in the experiment on Malme-3M; 16.5 µM (inactive) in the experiment on CCRF-CEM; 18.8 µM (inactive) with LOX IMVI; 21.4 µM (inactive) with HCC 2998. Further, the GI50 in the experiment with SN12C is 33.3 µM (inactive); in the experiment with SNB-19, 55.8 µM (inactive).

As for `COc1cc2c3c(cc(Cl)nc3c1OC)C(O)(CC(C)=O)C(=O)N2` (stereo not given), the GI50 in the experiment with SR was 19.3 µM (inactive); in the experiment with MOLT-4, 9.35 µM (inactive); with RPMI-8226, 23.8 µM (inactive); with OVCAR-8, 18.5 µM (inactive); in the experiment on K562 it was 18.5 µM (inactive); in the experiment on NCI-H226 it was > 42.3 µM (inactive). In addition, the GI50 was > 45.7 µM (inactive) in the experiment with HT-29; 17.3 µM (inactive) in the experiment with MDA-N; > 44.9 µM (inactive) in the experiment with NCI/ADR-RES; 20.2 µM (inactive) in the experiment with TK-10; 19.1 µM (inactive) with IGROV-1; over 43.4 µM in the experiment with HCT-15. The GI50 in the experiment on U-251 is 57.8 µM (inactive); in the experiment on OVCAR-3, 33 µM (inactive); in the experiment on Malme-3M it was 15.9 µM (inactive); in the experiment with CCRF-CEM, 9.18 µM (inactive); in the experiment with LOX IMVI it was 16.3 µM (inactive); with HCC 2998 it was > 44 µM (inactive). Also, the GI50 in the experiment with SN12C was 21.7 µM (inactive); with SNB-19, > 40.3 µM (inactive).
